Experimental data: PubChem BioAssay AID330 (DTP/NCI, 2004)
Where “and” joins values, the source holds several entries; their conditions need not be identical. Equal entries are not always repeated. Toxic doses and inconclusive results are not listed.

Test system: P388 leukemia ip, CD2F1 mice, survival T/C
Test: NCI In Vivo Anticancer Drug Screen. Data for tumor model P388 Leukemia (intraperitoneal) in CD2F1 (CDF1) mice
Conditions: endpoint: median survival time, higher = longer survival
Method in brief: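 Mice carrying the transplanted tumor received test compound or vehicle. Survival was recorded in each group, and the value is the treated-group measurement divided by that of the vehicle-treated control group.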

[1] = dose: 50.0 mg/kg/injection, schedule: Q01DX009 (ip), vehicle: saline with Tween-80
[2] = dose: 100.0 mg/kg/injection, schedule: Q01DX009 (ip), vehicle: saline with Tween-80
[3] = dose: 200.0 mg/kg/injection, schedule: Q01DX009 (ip), vehicle: saline with Tween-80
[4] = dose: 50.0 mg/kg/injection, schedule: Q01DX005 (ip), vehicle: saline with Tween-80
[5] = dose: 100.0 mg/kg/injection, schedule: Q01DX005 (ip), vehicle: saline with Tween-80
[6] = dose: 200.0 mg/kg/injection, schedule: Q01DX005 (ip), vehicle: saline with Tween-80
[7] = dose: 60.0 mg/kg/injection, schedule: Q01DX005 (ip), vehicle: Klucel (hydroxypropylcellulose) (HPC)
[8] = dose: 50.0 mg/kg/injection, schedule: Q01DX009 (ip), vehicle: saline
[9] = dose: 200.0 mg/kg/injection, schedule: Q01DX009 (ip), vehicle: saline
[10] = dose: 25.0 mg/kg/injection, schedule: Q01DX005 (ip), vehicle: Klucel (hydroxypropylcellulose) (HPC)
[11] = dose: 50.0 mg/kg/injection, schedule: Q01DX005 (ip), vehicle: Klucel (hydroxypropylcellulose) (HPC)

Compound: COc1ccccc1/C=N/NC(=O)Cc1ccccc1
- T/C [1]: 101 % of control
- T/C [2]: 91 % of control
- T/C [3]: 93 % of control

Compound: CCN=C=NCCCN(C)C
- T/C (dose: 7.5 mg/kg/injection, schedule: Q01DX009 (ip), vehicle: saline): 108 % of control
- T/C (dose: 7.5 mg/kg/injection, schedule: Q04DX003 (ip), vehicle: saline): 102 % of control
- T/C (dose: 15.0 mg/kg/injection, schedule: Q01DX009 (ip), vehicle: saline): 108 % of control
- T/C (dose: 15.0 mg/kg/injection, schedule: Q04DX003 (ip), vehicle: saline): 99 % of control
- T/C (dose: 30.0 mg/kg/injection, schedule: Q01DX009 (ip), vehicle: saline): 105 % of control
- T/C (dose: 30.0 mg/kg/injection, schedule: Q04DX003 (ip), vehicle: saline): 98 % of control
- T/C (dose: 60.0 mg/kg/injection, schedule: Q01DX009 (ip), vehicle: saline): 107 % of control

Compound: c1cc2c3c(cccc3c1)NN=N2
- T/C (dose: 60.0 mg/kg/injection, schedule: Q01DX005 (ip), vehicle: Klucel + Tween-80): 106 % of control
- T/C (dose: 120.0 mg/kg/injection, schedule: Q01DX005 (ip), vehicle: Klucel + Tween-80): 99 % of control
- T/C (dose: 240.0 mg/kg/injection, schedule: Q01DX005 (ip), vehicle: Klucel + Tween-80): 96 % of control

Compound: CC(C)CN1CC(=O)N2Cc3ccccc3CN2C(=O)C1
- T/C [4]: 101 % of control
- T/C [5]: 106 % of control
- T/C [6]: 103 % of control

Compound: c1cc(-c2ncc3ccncc3n2)ccn1
- T/C [7]: 109 % of control
- T/C (dose: 120.0 mg/kg/injection, schedule: Q01DX005 (ip), vehicle: Klucel (hydroxypropylcellulose) (HPC)): 100 % of control
- T/C (dose: 240.0 mg/kg/injection, schedule: Q01DX005 (ip), vehicle: Klucel (hydroxypropylcellulose) (HPC)): 98 % of control

Compound: CC1=CCC2C([C@H]1OC(=O)c1ccc([N+](=O)[O-])cc1)C(C)(C)CCC[C@]2(C)O (some centres undefined)
- T/C (dose: 100.0 mg/kg/injection, schedule: Q04DX002 (ip), vehicle: Klucel (hydroxypropylcellulose) (HPC)): 98 % of control
- T/C (dose: 200.0 mg/kg/injection, schedule: Q04DX002 (ip), vehicle: Klucel (hydroxypropylcellulose) (HPC)): 89 % of control
- T/C (dose: 400.0 mg/kg/injection, schedule: Q04DX002 (ip), vehicle: Klucel (hydroxypropylcellulose) (HPC)): 90 % of control

Compound: COc1ccc(-c2n(O)c(C)c(C)[n+]2[O-])cc1
- T/C (dose: 12.5 mg/kg/injection, schedule: Q01DX009 (ip), vehicle: saline with Tween-80): 101 % of control
- T/C (dose: 25.0 mg/kg/injection, schedule: Q01DX009 (ip), vehicle: saline with Tween-80): 100 % of control
- T/C [1]: 102 % of control and 92 % of control

Compound: COC(=O)C1CCC(/C(C#N)=C2/CCC(C(=O)OC)[N-]2)=N1.COC(=O)C1CCC(/C(C#N)=C2/CCC(C(=O)OC)[N-]2)=N1.[Cu+2] (centres undefined)
- T/C (dose: 60.0 mg/kg/injection, schedule: Q01DX005 (ip), vehicle: saline with Tween-80): 103 % of control
- T/C (dose: 120.0 mg/kg/injection, schedule: Q01DX005 (ip), vehicle: saline with Tween-80): 94 % of control

Compound: C=C(CN(C)C)C(=O)c1ccccc1C
- T/C (dose: 0.78 mg/kg/injection, schedule: Q01DX005 (ip), vehicle: saline): 102 % of control
- T/C (dose: 1.56 mg/kg/injection, schedule: Q01DX005 (ip), vehicle: saline): 98 % of control
- T/C (dose: 3.12 mg/kg/injection, schedule: Q01DX005 (ip), vehicle: saline): 94 % of control
- T/C (dose: 6.25 mg/kg/injection, schedule: Q01DX005 (ip), vehicle: suspension in saline): 108 % of control

Compound: O=[N+]([O-])c1ccc(-c2nc3ccncc3[nH]2)cc1
- T/C [8]: 107 % of control
- T/C (dose: 100.0 mg/kg/injection, schedule: Q01DX009 (ip), vehicle: saline): 104 % of control
- T/C [9]: 93 % of control

Compound: CCOC(=O)c1cc(CC)[nH]c(=O)c1C#N
- T/C [10]: 92 % of control
- T/C [11]: 98 % of control
- T/C (dose: 100.0 mg/kg/injection, schedule: Q01DX005 (ip), vehicle: Klucel (hydroxypropylcellulose) (HPC)): 100 % of control

Compound: Cn1c(-c2nc3ccccc3n2C)nc2ccccc21
- T/C [4]: 102 % of control
- T/C [5]: 98 % of control
- T/C [6]: 102 % of control

Compound: O=C(/C=C/c1ccccc1)c1ccccc1O
- T/C [1]: 96 % of control
- T/C [2]: 104 % of control
- T/C [3]: 101 % of control

Compound: C1CN1c1nc(N2CC2)nc(N2CC2)n1
- T/C (dose: 0.05 mg/kg/injection, schedule: Q01DX009 (ip), vehicle: saline): 111 % of control
- T/C (dose: 0.13 mg/kg/injection, schedule: Q01DX009 (ip), vehicle: saline): 115 % of control
- T/C (dose: 0.2 mg/kg/injection, schedule: Q01DX009 (ip), vehicle: saline): 159 % of control
- T/C (dose: 0.25 mg/kg/injection, schedule: Q01DX009 (ip), vehicle: saline): 150 % of control and 169 % of control
- T/C (dose: 0.4 mg/kg/injection, schedule: Q01DX009 (ip), vehicle: saline): 235 % of control
- T/C (dose: 0.5 mg/kg/injection, schedule: Q01DX009 (ip), vehicle: saline): 106 % of control and 120 % of control and 246 % of control
- T/C (dose: 1.0 mg/kg/injection, schedule: Q01DX009 (ip), vehicle: saline): 88 % of control

Compound: CCCCCCC1(/C=C/c2ccc(Cl)cc2Cl)OCC(C)(C)CO1
- T/C (dose: 50.0 mg/kg/injection, schedule: Q01DX009 (ip), vehicle: saline + alcohol): 102 % of control
- T/C (dose: 100.0 mg/kg/injection, schedule: Q01DX009 (ip), vehicle: saline + alcohol): 102 % of control
- T/C (dose: 200.0 mg/kg/injection, schedule: Q01DX009 (ip), vehicle: saline + alcohol): 102 % of control

Compound: CCCCc1ccc2nc(C)cc(N/N=C/c3ccc4c(c3)OCO4)c2c1
- T/C (dose: 12.5 mg/kg/injection, schedule: Q01DX005 (ip), vehicle: Klucel (hydroxypropylcellulose) (HPC)): 94 % of control
- T/C [10]: 100 % of control
- T/C [11]: 92 % of control and 94 % of control
- T/C (dose: 200.0 mg/kg/injection, schedule: Q01DX005 (ip), vehicle: Klucel (hydroxypropylcellulose) (HPC)): 92 % of control

Compound: Cn1c(=O)c2[nH]cnc2n(C)c1=O (tested in a mixture with another compound)
- T/C [1]: 104 % of control
- T/C [2]: 95 % of control
- T/C [3]: 104 % of control

Compound: O=C(Nc1ncc([N+](=O)[O-])s1)c1cccnc1
- T/C (dose: 3.12 mg/kg/injection, schedule: Q01DX009 (ip), vehicle: suspension in saline): 101 % of control
- T/C (dose: 6.25 mg/kg/injection, schedule: Q01DX009 (ip), vehicle: suspension in saline): 87 % of control
- T/C (dose: 12.5 mg/kg/injection, schedule: Q01DX009 (ip), vehicle: saline): 91 % of control
- T/C (dose: 12.5 mg/kg/injection, schedule: Q01DX009 (ip), vehicle: suspension in saline): 87 % of control
- T/C [8]: 100 % of control
- T/C [9]: 88 % of control

Compound: Cc1ccc(S(=O)(=O)C2(Sc3ccccc3)SC2C(=O)c2ccccc2)cc1 (centres undefined)
- T/C (dose: 50.0 mg/kg/injection, schedule: Q01DX009 (ip), vehicle: Klucel (hydroxypropylcellulose) (HPC)): 99 % of control
- T/C (dose: 100.0 mg/kg/injection, schedule: Q01DX009 (ip), vehicle: Klucel (hydroxypropylcellulose) (HPC)): 105 % of control
- T/C (dose: 200.0 mg/kg/injection, schedule: Q01DX009 (ip), vehicle: Klucel (hydroxypropylcellulose) (HPC)): 111 % of control

Compound: OC[C@@H]1CCCN2CCCC[C@H]12
- T/C (dose: 6.2 mg/kg/injection, schedule: Q01DX007 (ip), vehicle: carboxymethylcellulose (CMC)): 91 % of control
- T/C (dose: 12.5 mg/kg/injection, schedule: Q01DX007 (ip), vehicle: carboxymethylcellulose (CMC)): 91 % of control
- T/C (dose: 25.0 mg/kg/injection, schedule: Q01DX007 (ip), vehicle: carboxymethylcellulose (CMC)): 91 % of control

Compound: NC(=NCc1ccccc1)N/N=C\c1ccnc2ccccc12
- T/C (dose: 15.0 mg/kg/injection, schedule: Q01DX005 (ip), vehicle: Klucel (hydroxypropylcellulose) (HPC)): 101 % of control
- T/C (dose: 30.0 mg/kg/injection, schedule: Q01DX005 (ip), vehicle: Klucel (hydroxypropylcellulose) (HPC)): 97 % of control
- T/C [7]: 95 % of control and 97 % of control

Compound: COc1cc2cc[n+]3cc4c(ccc5ccccc54)cc3c2cc1OC
- T/C (dose: 6.25 mg/kg/injection, schedule: Q04DX003 (ip), vehicle: distilled water + Tween-80): 166 % of control
- T/C (dose: 12.5 mg/kg/injection, schedule: Q04DX003 (ip), vehicle: distilled water + Tween-80): 158 % of control
- T/C (dose: 12.5 mg/kg/injection, schedule: Q04DX003 (ip), vehicle: water): 152 % of control
- T/C (dose: 25.0 mg/kg/injection, schedule: Q04DX003 (ip), vehicle: distilled water + Tween-80): 177 % of control
